The results in this text go back to US20250099448A1, “HETEROCYCLIC COMPOUNDS” (Hoffmann-La Roche Inc., priority 2022, published 2025).

In this experiment the target is T1, MAGL protein (Homo sapiens, UniProt Q99685).
T1 sequence (Q99685 1-303): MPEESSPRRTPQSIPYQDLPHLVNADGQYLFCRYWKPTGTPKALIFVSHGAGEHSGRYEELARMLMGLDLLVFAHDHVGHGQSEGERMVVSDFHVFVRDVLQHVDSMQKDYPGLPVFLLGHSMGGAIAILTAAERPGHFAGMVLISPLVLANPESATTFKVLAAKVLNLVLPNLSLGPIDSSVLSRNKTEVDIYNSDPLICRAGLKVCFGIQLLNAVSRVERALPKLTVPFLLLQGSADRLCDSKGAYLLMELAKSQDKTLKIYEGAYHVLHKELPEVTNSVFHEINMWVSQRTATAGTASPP
The experiment in a line: 2-AG assay: MAGL inhibitory activity by hydrolysis of 2-arachidonoylglycerol to arachidonic acid, followed by mass spectrometry. It counts as biochemical. Conditions: 8 μM 2-arachidonoylglycerol, 15 min preincubation, 30 min reaction at RT, RapidFire MS readout. An outline of the steps:
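Activity was measured by RapidFire SPE–triple-quad MS as the ratio of arachidonic acid to d8-arachidonic acid after 2-AG hydrolysis (8 μM substrate, 30 min, RT, acetonitrile quench). Compounds, tested from 12.5 μM down to […], were first preincubated 15 min with MAGL in TRIS/EDTA/Tween-20 buffer containing 2.5% DMSO.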
Molecule `O=C(N1CC(C23CC(S(=O)(=O)c4ccc(C(F)(F)F)cc4)(C2)C3)C1)N1CC2(CC(c3nc(C4CC4)n[nH]3)C2)C1` [compound 722] registered an IC50 of 57.1 nM.

In turn, `O=C(N1CC2(CCC(S(=O)(=O)c3ccc(C(F)(F)F)cc3)CC2)C1)N1CC2(CC(c3nc(C4CC4)n[nH]3)C2)C1` [compound 723] had an IC50 of 1.37 nM.

The molecule `O=C(N1CC2(CC(Cn3cc(OC(F)F)ccc3=O)C2)C1)N1CC2(CC(c3nc(C4CC4)n[nH]3)C2)C1` [compound 724] came in with an IC50 of 3.8 nM.

`Cc1cc(C)n(C23CC(C4CN(C(=O)N5CC6(CC(c7nc(C8CC8)n[nH]7)C6)C5)C4)(C2)C3)n1` [compound 725] came in with an IC50 of 46.6 nM.

With `O=C(N1CC2(CC(c3nc(C4(O)CC4)n[nH]3)C2)C1)N1CC2(CC[C@@H](Cc3cccc(S(=O)(=O)C(F)(F)F)c3)C2)C1` [compound 726], the IC50 worked out at 0.1 nM.

`O=C(N1CC2(CC(Cc3cnn(C(F)(F)F)c3)C2)C1)N1CC2(CC(c3nc(C4(O)CC4)n[nH]3)C2)C1` [compound 727]: the IC50 worked out at 2.68 nM.

Take `O=C(N1CC2(CC(Cc3cccc(S(=O)(=O)C(F)(F)F)c3)C2)C1)N1CC2(CC(c3nc(C4COC4)n[nH]3)C2)C1` [compound 728]: 4.19 nM corresponded to half-maximal inhibition (IC50).

Take `Cn1ncc(CC2CC3(C2)CN(C(=O)N2CC4(CC(c5nc(C6CC6)n[nH]5)C4)C2)C3)c1C(F)(F)F` [compound 729]: the IC50 came to 0.09 nM.

`N=S(=O)(c1ccc(OC2CC3(C2)CN(C(=O)N2CC4(CC(c5nc(C6CC6)n[nH]5)C4)C2)C3)cc1)C(F)(F)F` (stereo not shown) [compound 730] had an IC50 of 2.01 nM.

For `O=C(N1CC2(CC(Cc3cncc(S(=O)(=O)C(F)(F)F)c3)C2)C1)N1CC2(CC(c3nc(C4CC4)n[nH]3)C2)C1` [compound 731], the IC50 turned out to be 0.18 nM.

On to `O=C(N1CC2(CCN(Cc3nc(C(F)(F)F)cs3)CC2)C1)N1CC2(CC(c3nc(C4CC4)n[nH]3)C2)C1` [compound 732], for which the IC50 was determined as 6.18 nM.

Molecule `O=C(N1CC2(CC(c3nc(C4CC4)n[nH]3)C2)C1)N1CC2(CN(Cc3nc(CC4CC4)no3)C2)C1` [compound 733] showed an IC50 of 29.5 nM.

For `N=S(=O)(c1cccc(CC2CC3(C2)CN(C(=O)N2CC4(CC(c5ncn[nH]5)C4)C2)C3)c1)C(F)(F)F` (stereo not shown) [compound 734], it took 568 nM to reach half-maximal inhibition (IC50).

On to `O=C(N1CC(C23CC(Oc4ccc(C(F)(F)F)cn4)(C2)C3)C1)N1CC2(CC(c3nc(C4CC4)n[nH]3)C2)C1` [compound 736], for which the IC50 was determined as 1.65 nM.

In turn, `O=C(N1CC2(CC(Cc3ncc(Cl)cc3F)C2)C1)N1CC2(CC(c3nc(C4CC(F)(F)C4)n[nH]3)C2)C1` [compound 737] returned an IC50 of 12 nM.

`O=C(N1CC2(CC(Cc3nnc(C4(C(F)(F)F)CC4)o3)C2)C1)N1CC2(CC(c3nc(C4CC(F)(F)C4)n[nH]3)C2)C1` [compound 738] had an IC50 of 328 nM.

As for `N=S(=O)(c1ccc(CC2CC3(C2)CN(C(=O)N2CC4(CC(c5nc(C6CC6)n[nH]5)C4)C2)C3)nc1)C(F)(F)F` (stereo not shown) [compound 739], the IC50 was found to be 1.26 nM.

Molecule `CC(C)(C)c1csc(CN2CC3(C2)CN(C(=O)N2CC4(CC(c5nc(C6CC6)n[nH]5)C4)C2)C3)n1` [compound 740] had an IC50 of 1.32 nM.

On to `O=C(N1CC2(CC(c3nc(C4(O)CC4)n[nH]3)C2)C1)N1CC2(CC[C@H](Cc3cccc(S(=O)(=O)C(F)(F)F)c3)C2)C1` [compound 741], for which 0.15 nM corresponded to half-maximal inhibition (IC50).

For the molecule `O=C(N1CC2(CC(Cc3cc(F)cc(C(F)(F)F)c3)C2)C1)N1CC2(CC(c3nc(C4COC4)n[nH]3)C2)C1` [compound 742], the IC50 worked out at 2.18 nM.

As to `CC(F)(F)c1noc(CN2CC3(C2)CN(C(=O)N2CC4(CC(c5nc(C6CC6)n[nH]5)C4)C2)C3)n1` [compound 743], the IC50 was 13.2 nM.

Regarding `Cn1nc(CC2CC3(C2)CN(C(=O)N2CC4(CC(c5nc(C6COC6)n[nH]5)C4)C2)C3)cc1C(F)(F)F` [compound 744], the IC50 was found to be 13.6 nM.

The molecule `N=S(=O)(c1ccc(C2CN(C(=O)N3CC4(CC(c5nc(C6CC6)n[nH]5)C4)C3)C2)cc1)C1CC1` (stereo not shown) [compound 745] displayed an IC50 of 6.37 nM.

For `O=C(N1CC2(CC(c3nc(C4CC4)n[nH]3)C2)C1)N1CC2(CC(n3cnc(C4CC4)n3)C2)C1` [compound 746], 8.64 nM corresponded to half-maximal inhibition (IC50).

For `O=C(N1CC2(CC(Cc3n[nH]cc3C(F)(F)F)C2)C1)N1CC2(CC(c3nc(C4CC4)n[nH]3)C2)C1` [compound 747], the IC50 was determined as 0.09 nM.

Turning to `O=C(N1CC2(CC(Cc3cncc(C(F)(F)F)c3)C2)C1)N1CC2(CC(c3nc(C4COC4)n[nH]3)C2)C1` [compound 748], the IC50 was 37.2 nM.

With `N#Cc1cc(CC2CC3(C2)CN(C(=O)N2CC4(CC(c5nc(C6(O)CC6)n[nH]5)C4)C2)C3)cc(C(F)(F)F)c1` [compound 749], the IC50 was determined as 0.25 nM.

`O=C(N1CC2(CC(c3nc(C4CC(F)(F)C4)n[nH]3)C2)C1)N1CC2(CN(Cc3cnc(C(F)(F)F)cn3)C2)C1` [compound 750] displayed an IC50 of 445 nM.

`CC(C)c1cc(C(C)C)n(-c2ccc(C3CN(C(=O)N4CC5(CC(c6nc(C7(O)CC7)n[nH]6)C5)C4)C3)cc2)n1` [compound 751] returned an IC50 of 0.66 nM.

For the molecule `N#Cc1ccc(CC2CC3(C2)CN(C(=O)N2CC4(CC(c5nc(C6(O)CC6)n[nH]5)C4)C2)C3)c(F)c1` [compound 752], 0.29 nM corresponded to half-maximal inhibition (IC50).

Molecule `CS(=O)(=O)c1cc(CC2CC3(C2)CN(C(=O)N2CC4(CC(c5ncn[nH]5)C4)C2)C3)ccc1C(F)(F)F` [compound 753] returned an IC50 of 1490 nM.

The molecule `O=C(N1CC2(CC(Cc3ccc(F)cc3C(F)(F)F)C2)C1)N1CC2(CC(c3nc(C4COC4)n[nH]3)C2)C1` [compound 754] registered an IC50 of 0.43 nM.

As to `O=C(N1CC2(CC(Cc3ccc(S(=O)(=O)C(F)(F)F)cc3)C2)C1)N1CC2(CC(c3nc(C4COC4)n[nH]3)C2)C1` [compound 755], half-maximal inhibition (IC50) required 0.61 nM.

In turn, `O=C(N1CC2(CCC(Cc3ccc(Cl)cn3)CC2)C1)N1CC2(CC(c3nc(C4CC(F)(F)C4)n[nH]3)C2)C1` [compound 756] showed an IC50 of 98.5 nM.

`O=C(N1CC2(CC(Cn3cc(OC(F)(F)F)ccc3=O)C2)C1)N1CC2(CC(c3nc(C4CC4)n[nH]3)C2)C1` [compound 757] showed an IC50 of 3.77 nM.

With `O=C(N1CC2(CC(c3nc(C4CC(F)(F)C4)n[nH]3)C2)C1)N1CC2(CN(Cc3cc(C(F)(F)F)no3)C2)C1` [compound 758], the IC50 amounted to 145 nM.

As to `N#Cc1cc(CC2CC3(C2)CN(C(=O)N2CC4(CC(c5nc(C6COC6)n[nH]5)C4)C2)C3)cc(C(F)(F)F)c1` [compound 759], the IC50 amounted to 11 nM.

As for `O=C(N1CC(C23CC(c4cncc(F)c4)(C2)C3)C1)N1CC2(CC(c3nc(C4CC4)n[nH]3)C2)C1` [compound 760], the IC50 is 6.09 nM.

`O=C(N1CC2(CC(Cc3cnc(C(F)(F)F)cn3)C2)C1)N1CC2(CC(c3nc(C4COC4)n[nH]3)C2)C1` [compound 761] came in with an IC50 of 147 nM.

The molecule `CCc1nsc(CN2CC3(C2)CN(C(=O)N2CC4(CC(c5nc(C6CC6)n[nH]5)C4)C2)C3)n1` [compound 762] returned an IC50 of 35.7 nM.

For the molecule `O=C(N1CC2(CC(c3nc(C4CC4)n[nH]3)C2)C1)N1CC2(CN(Cc3coc(C(F)(F)F)n3)C2)C1` [compound 763], the IC50 turned out to be 27.1 nM.

Turning to `O=C(N1CC2(CC(Cc3cnn(CC(F)(F)F)c3)C2)C1)N1CC2(CC(c3nc(C4CC4)n[nH]3)C2)C1` [compound 764], the IC50 is 1.08 nM.

On to `O=C(N1CC2(CC(Cc3cnn(CC(F)(F)F)c3)C2)C1)N1CC2(CC(c3nc(C4(O)CC4)n[nH]3)C2)C1` [compound 765], for which the IC50 worked out at 4.49 nM.

In the case of `O=C(N1CC2(CC(Cn3ccc(C(F)(F)F)cc3=O)C2)C1)N1CC2(CC(c3nc(C4CC4)n[nH]3)C2)C1` [compound 766], half-maximal inhibition (IC50) required 2.83 nM.

Turning to `CCNC(=O)c1cc(Cl)ccc1C12CC(C3CN(C(=O)N4CC5(CC(c6nnc(C7CC7)[nH]6)C5)C4)C3)(C1)C2` [compound 767], inhibition was half-maximal at 4.07 nM (IC50).

As for `O=C(N1CC2(CC(Cc3ccc(C(F)(F)F)cc3F)C2)C1)N1CC2(CC(c3nc(C4COC4)n[nH]3)C2)C1` [compound 768], the IC50 came to 0.08 nM.

Turning to `O=C(N1CC2(CC(Cc3ccc(OC(F)(F)F)nc3)C2)C1)N1CC2(CC(c3nc(C4COC4)n[nH]3)C2)C1` [compound 769], the IC50 worked out at 11.8 nM.

With `Cn1cc(CC2CC3(C2)CN(C(=O)N2CC4(CC(c5nc(C6CC6)n[nH]5)C4)C2)C3)c(C(F)(F)F)n1` [compound 770], the IC50 amounted to 0.23 nM.

`N#Cc1ccc(CC2CC3(C2)CN(C(=O)N2CC4(CC(c5nc(C6COC6)n[nH]5)C4)C2)C3)cc1C(F)(F)F` [compound 771] yielded a 50% inhibitory concentration (IC50) of 7.02 nM.

In the case of `N#Cc1ccc(CC2CC3(C2)CN(C(=O)N2CC4(CC(c5nc(C6CC6)n[nH]5)C4)C2)C3)c(F)c1` [compound 772], inhibition was half-maximal at 0.05 nM (IC50).

The molecule `O=C(N1CC(C23CC(c4ccc(F)cc4)(C2)C3)C1)N1CC2(CC(c3nc(C4CC4)n[nH]3)C2)C1` [compound 773] had an IC50 of 1.31 nM.

Take `Cn1ncc(CC2CC3(C2)CN(C(=O)N2CC4(CC(c5nc(C6COC6)n[nH]5)C4)C2)C3)c1C(F)(F)F` [compound 774]: the IC50 was determined as 7.94 nM.

As for `Cn1nc(C(F)(F)F)cc1CC1CC2(C1)CN(C(=O)N1CC3(CC(c4nc(C5(O)CC5)n[nH]4)C3)C1)C2` [compound 775], the IC50 is 2.01 nM.

In turn, `CS(=O)(=O)C1(c2ccc(C3CN(C(=O)N4CC5(CC(c6nc(C7CC7)n[nH]6)C5)C4)C3)cc2)CC1` [compound 776] displayed an IC50 of 5.9 nM.

In the case of `Cn1ncc(C(F)(F)F)c1CC1CC2(C1)CN(C(=O)N1CC3(CC(c4nc(C5(O)CC5)n[nH]4)C3)C1)C2` [compound 777], the IC50 worked out at 1.27 nM.

The IC50 is the concentration needed to halve the response being measured.
